Source: publication PMC10641814 (Journal of Medicinal Chemistry, 2023)

Key:
h5-HT6R = molecular target: T1, h5-HT6R (Homo sapiens, UniProt P50406); experiment: 5-HT6R radioligand binding ([3H]-LSD) in HEK293 cells stably expressing h5-HT6R; conditions: 2 nM [3H]-LSD, mean of three independent experiments, read-out: Ki ± SEM [nM] 5-HT6R
T1 construct: expressed in transfected cells

hMAO-B = molecular target: T2, hMAO-B (Homo sapiens, UniProt P27338); experiment: MAO-B inhibition, fluorometric method, p-tyramine substrate; format: biochemical; conditions: two experiments in duplicate
T2 construct: purchased Sigma-Aldrich M7441
T2 sequence (P27338 1-520): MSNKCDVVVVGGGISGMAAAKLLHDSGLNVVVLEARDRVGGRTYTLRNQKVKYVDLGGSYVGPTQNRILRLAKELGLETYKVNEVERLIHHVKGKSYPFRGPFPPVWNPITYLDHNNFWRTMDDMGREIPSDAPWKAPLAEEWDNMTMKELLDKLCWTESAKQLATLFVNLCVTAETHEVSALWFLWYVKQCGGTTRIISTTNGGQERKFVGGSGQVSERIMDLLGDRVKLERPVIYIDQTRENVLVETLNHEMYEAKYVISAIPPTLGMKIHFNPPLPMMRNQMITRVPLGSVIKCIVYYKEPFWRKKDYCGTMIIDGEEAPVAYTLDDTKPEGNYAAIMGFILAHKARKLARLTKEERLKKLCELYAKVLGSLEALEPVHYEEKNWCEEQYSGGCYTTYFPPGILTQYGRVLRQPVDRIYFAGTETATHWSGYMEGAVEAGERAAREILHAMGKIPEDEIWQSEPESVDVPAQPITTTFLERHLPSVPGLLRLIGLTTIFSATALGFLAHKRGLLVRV

T1 sequence (P50406 whole entry): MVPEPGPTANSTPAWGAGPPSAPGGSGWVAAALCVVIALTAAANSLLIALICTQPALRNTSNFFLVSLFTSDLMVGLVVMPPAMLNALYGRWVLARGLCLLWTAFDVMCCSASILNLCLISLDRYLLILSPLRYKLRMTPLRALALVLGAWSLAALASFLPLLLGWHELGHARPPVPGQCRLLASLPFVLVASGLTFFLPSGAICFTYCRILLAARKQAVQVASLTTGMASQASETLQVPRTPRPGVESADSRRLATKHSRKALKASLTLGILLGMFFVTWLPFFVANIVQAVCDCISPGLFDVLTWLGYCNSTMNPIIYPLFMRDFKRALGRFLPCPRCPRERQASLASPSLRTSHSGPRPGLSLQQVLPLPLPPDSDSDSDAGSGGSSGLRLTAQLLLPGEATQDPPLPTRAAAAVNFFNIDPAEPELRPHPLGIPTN

Compound | Ki (h5-HT6R) | pIC50 ± SEM (MAO-B) (hMAO-B)
Cl.c1ccc(Cn2ccc3c(N[C@H]4CCNC4)nc4ccccc4c32)cc1 [Compound 3] | 21 ± 3 nM | 6.57 ± 0.03
Cl.Fc1cccc(Cn2ccc3c(N[C@H]4CCNC4)nc4ccccc4c32)c1 [Compound 4] | 21 ± 2 nM | 6.16 ± 0.05
Cl.Clc1cccc(Cn2ccc3c(N[C@H]4CCNC4)nc4ccccc4c32)c1 [Compound 5, (S)-1-(3-Chlorobenzyl)-N-(pyrrolidin-3-yl)-1H-pyrrolo[3,2-c]quinolin-4-amine Hydrochloride] | 7 ± 1 nM | 6.92 ± 0.04
Cl.Clc1cccc(Cn2ccc3c(N[C@@H]4CCNC4)nc4ccccc4c32)c1 [Compound 6] | 30 ± 4 nM | 6.83 ± 0.01
Brc1cccc(Cn2ccc3c(N[C@H]4CCNC4)nc4ccccc4c32)c1.Cl [Compound 7] | 10 ± 1 nM | 6.89 ± 0.12
COc1cccc(Cn2ccc3c(N[C@H]4CCNC4)nc4ccccc4c32)c1.Cl [Compound 8] | 25 ± 3 nM | 6.86 ± 0.07
Cl.Clc1cccc(Cn2ccc3c(NC[C@H]4CCCN4)nc4ccccc4c32)c1 [Compound 9] | 214 ± 26 nM | 5.70 ± 0.04
Cl.Clc1cccc(Cn2ccc3c(NC[C@@H]4CCCN4)nc4ccccc4c32)c1 [Compound 10, (S)-1-(3-Chlorobenzyl)-N-(pyrrolidin-2-ylmethyl)-1H-pyrrolo[3,2-c]quinolin-4-amine Hydrochloride] | 226 ± 30 nM | 6.52 ± 0.04
Cl.Clc1cccc(Cn2ccc3c(NC[C@H]4CCNC4)nc4ccccc4c32)c1 [Compound 11] | 140 ± 18 nM | 8.02 ± 0.12
Cl.Clc1cccc(Cn2ccc3c(NC[C@@H]4CCNC4)nc4ccccc4c32)c1 [Compound 12] | 122 ± 10 nM | 6.52 ± 0.04
CN(C)C1CCN(c2nc3ccccc3c3c2ccn3Cc2cccc(Cl)c2)C1.Cl (centres unmarked) [Compound 13] | 1340 ± 156 nM | 7.43 ± 0.04
Cl.NC[C@@H]1CCN(c2nc3ccccc3c3c2ccn3Cc2cccc(Cl)c2)C1 [Compound 14] | 1520 ± 220 nM | 8.00 ± 0.00
CNC1CN(c2nc3ccccc3c3c2ccn3Cc2cccc(Cl)c2)C1.Cl [Compound 15] | 723 ± 87 nM | 8.22 ± 0.14
Cl.Clc1cccc(Cn2ccc3c(N4CCCNCC4)nc4ccccc4c32)c1 [Compound 17] | 138 ± 15 nM | 7.69 ± 0.12
Cl.Clc1cccc(Cn2ccc3c(N4C[C@H]5C[C@@H]4CN5)nc4ccccc4c32)c1 [Compound 18] | 372 ± 48 nM | 6.73 ± 0.02
CN(C)C1CCN(c2nc3ccccc3c3c2ccn3Cc2cccc(Cl)c2)CC1.Cl [Compound 19] | 1270 ± 173 nM | 5.60 ± 0.02
Cl.Clc1cccc(Cn2ccc3c(N4CC5(CCNC5)C4)nc4ccccc4c32)c1 [Compound 20, 1-(3-Chlorobenzyl)-4-(2,6-diazaspiro[3.4]octan-2-yl)-1H-pyrrolo[3,2-c]quinoline Hydrochloride] | 677 ± 82 nM | 7.01 ± 0.11
Cl.Clc1cccc(Cn2ccc3c(N4CC5(CNC5)C4)nc4ccccc4c32)c1 [Compound 21] | 920 ± 127 nM | 6.97 ± 0.05
Cl.Clc1cccc(Cn2ccc3c(C4=CCNCC4)nc4ccccc4c32)c1 [Compound 22] | 34 ± 4 nM | 6.67 ± 0.04
Cl.Clc1cccc(Cn2ccc3c(C4CCNCC4)nc4ccccc4c32)c1 [Compound 23, 1-(3-Chlorobenzyl)-4-(piperidin-4-yl)-1H-pyrrolo[3,2-c]quinoline Hydrochloride] | 541 ± 80 nM | 6.13 ± 0.06
Cl.Clc1cccc(Cn2ccc3c(CN4CCNCC4)nc4ccccc4c32)c1 [Compound 24] | 119 ± 14 nM | 5.21 ± 0.02
Cl.Clc1cccc(CNc2cc(N3CCNCC3)nc3ccccc23)c1 [Compound 25] | 152 ± 18 nM | 5.36 ± 0.03
